# PMC6519479 (Molecular systems design & engineering, 2018)
# No end group written: not given here.
# Assays:
# E. coli JW0013 = type: cell-based; details: for MIC E. coli JW0013: JW0013, 1 h; for MIC in 20% M9 / MIC in 20% MHB / MIC in 60% M9 / MIC in 60% MHB / MIC in 100% M9 / MIC in 100% MHB: JW0013, 6 h
# E. coli J2210 = type: cell-based; details: J2210, 1 h
# E. coli MC1061 = type: cell-based; details: MC1061, 1 h
# Salmonella SL1344 = type: cell-based, Salmonella enterica serovar Typhimurium; details: 1 h
# E. coli JJ2487 = type: cell-based; details: JJ2487, 1 h
# Salmonella MH91989 = type: cell-based, Salmonella enterica serovar Enteritidis; details: 1 h
# E. coli O157:H7 = type: cell-based; details: O157:H7, 1 h
# [1] = cited from earlier work
substance,measurement,setting,value
VDKKPYKPRPRPPRRIYNR-NH2 [VDKKPYKPRPRPPRRIYNR-NH2],MIC E. coli JW0013,E. coli JW0013,0.30 ± 0.07 µg/mL
same,MIC in 20% M9,E. coli JW0013,0.30 ± 0.09 µg/mL
same,MIC in 20% MHB,E. coli JW0013,0.20 ± 0.09 µg/mL
same,MIC in 60% M9,E. coli JW0013,1.57 ± 0.68 µg/mL
same,MIC in 60% MHB,E. coli JW0013,0.79 ± 0.35 µg/mL
same,MIC in 100% M9,E. coli JW0013,9.60 ± 2.00 µg/mL
same,MIC in 100% MHB,E. coli JW0013,2.40 ± 0.56 µg/mL
same,MIC E. coli J2210,E. coli J2210,0.20 ± 0.09 µg/mL
same,MIC E. coli MC1061,E. coli MC1061,0.15 ± 0.03 µg/mL
same,MIC Salmonella SL1344,Salmonella SL1344,0.42 ± 0.21 µg/mL
same,MIC E. coli JJ2487,E. coli JJ2487,0.30 ± 0.07 µg/mL
same,MIC Salmonella MH91989,Salmonella MH91989,0.42 ± 0.21 µg/mL
same,MIC E. coli O157:H7,E. coli O157:H7,1.57 ± 0.68 µg/mL
VDKKPYLPRPRPPRRIYNR-NH2 [VDKKPYLPRPRPPRRIYNR-NH2],MIC E. coli JW0013,E. coli JW0013,0.60 ± 0.14 µg/mL
same,MIC E. coli J2210,E. coli J2210,0.39 ± 0.18 µg/mL
same,MIC E. coli MC1061,E. coli MC1061,0.30 ± 0.07 µg/mL
same,MIC Salmonella SL1344,Salmonella SL1344,0.60 ± 0.14 µg/mL
same,MIC E. coli JJ2487,E. coli JJ2487,0.60 ± 0.14 µg/mL
same,MIC Salmonella MH91989,Salmonella MH91989,0.60 ± 0.14 µg/mL
same,MIC E. coli O157:H7,E. coli O157:H7,2.40 ± 0.56 µg/mL
VDKKPYRPRPRPPRRIYNR-NH2 [VDKKPYRPRPRPPRRIYNR-NH2],MIC E. coli JW0013,E. coli JW0013,0.39 ± 0.18 µg/mL
same,MIC in 20% M9,E. coli JW0013,0.39 ± 0.18 µg/mL
same,MIC in 20% MHB,E. coli JW0013,0.20 ± 0.09 µg/mL
same,MIC in 60% M9,E. coli JW0013,1.20 ± 0.28 µg/mL
same,MIC in 60% MHB,E. coli JW0013,0.60 ± 0.14 µg/mL
same,MIC in 100% M9,E. coli JW0013,9.60 ± 2.00 µg/mL
same,MIC in 100% MHB,E. coli JW0013,2.40 ± 0.56 µg/mL
same,MIC E. coli J2210,E. coli J2210,0.30 ± 0.07 µg/mL
same,MIC E. coli MC1061,E. coli MC1061,0.15 ± 0.03 µg/mL
same,MIC Salmonella SL1344,Salmonella SL1344,0.39 ± 0.18 µg/mL
same,MIC E. coli JJ2487,E. coli JJ2487,0.30 ± 0.07 µg/mL
same,MIC Salmonella MH91989,Salmonella MH91989,0.39 ± 0.18 µg/mL
same,MIC E. coli O157:H7,E. coli O157:H7,1.57 ± 0.68 µg/mL
VDKPPYKPRPRPPRRIYNR-NH2 [VDKPPYKPRPRPPRRIYNR-NH2],MIC E. coli JW0013,E. coli JW0013,0.60 ± 0.14 µg/mL
same,MIC E. coli J2210,E. coli J2210,0.30 ± 0.07 µg/mL
same,MIC E. coli MC1061,E. coli MC1061,0.15 ± 0.03 µg/mL
same,MIC Salmonella SL1344,Salmonella SL1344,0.60 ± 0.14 µg/mL
same,MIC E. coli JJ2487,E. coli JJ2487,0.79 ± 0.35 µg/mL
same,MIC Salmonella MH91989,Salmonella MH91989,0.60 ± 0.14 µg/mL
same,MIC E. coli O157:H7,E. coli O157:H7,2.40 ± 0.56 µg/mL
VDKPPYLPRPRPPROIYNO-NH2 [Onc72],antimicrobial activity compared to Onc18,[1],improved
"VDKPPYLPRPRPPRRIYNR-NH2 [VDKPPYLPRPRPPRRIYNR-NH2, reference compound]",MIC E. coli JW0013,E. coli JW0013,0.83 ± 0.42 µg/mL
same,MIC in 20% M9,E. coli JW0013,0.60 ± 0.14 µg/mL
same,MIC in 20% MHB,E. coli JW0013,0.79 ± 0.35 µg/mL
same,MIC in 60% M9,E. coli JW0013,1.20 ± 0.28 µg/mL
same,MIC in 60% MHB,E. coli JW0013,1.20 ± 0.28 µg/mL
same,MIC in 100% M9,E. coli JW0013,2.40 ± 0.56 µg/mL
same,MIC in 100% MHB,E. coli JW0013,2.40 ± 0.56 µg/mL
same,MIC E. coli J2210,E. coli J2210,0.79 ± 0.35 µg/mL
same,MIC E. coli MC1061,E. coli MC1061,0.30 ± 0.07 µg/mL
same,MIC Salmonella SL1344,Salmonella SL1344,0.60 ± 0.14 µg/mL
same,MIC E. coli JJ2487,E. coli JJ2487,0.60 ± 0.14 µg/mL
same,MIC Salmonella MH91989,Salmonella MH91989,0.60 ± 0.14 µg/mL
same,MIC E. coli O157:H7,E. coli O157:H7,3.14 ± 1.28 µg/mL
VDKPPYLPRPRPPRrIYNr-NH2 [Onc112],antimicrobial activity compared to Onc18,[1],improved
VDKPPYRPRPRPPRRIYNR-NH2 [VDKPPYRPRPRPPRRIYNR-NH2],MIC E. coli JW0013,E. coli JW0013,0.42 ± 0.21 µg/mL
same,MIC E. coli J2210,E. coli J2210,0.39 ± 0.18 µg/mL
same,MIC E. coli MC1061,E. coli MC1061,0.20 ± 0.09 µg/mL
same,MIC Salmonella SL1344,Salmonella SL1344,0.42 ± 0.21 µg/mL
same,MIC E. coli JJ2487,E. coli JJ2487,0.39 ± 0.18 µg/mL
same,MIC Salmonella MH91989,Salmonella MH91989,0.60 ± 0.14 µg/mL
same,MIC E. coli O157:H7,E. coli O157:H7,2.40 ± 0.56 µg/mL
VDKRPYLPRPRPPRRIYNR-NH2 [VDKRPYLPRPRPPRRIYNR-NH2],MIC E. coli JW0013,E. coli JW0013,0.83 ± 0.42 µg/mL
same,MIC E. coli J2210,E. coli J2210,0.60 ± 0.14 µg/mL
same,MIC E. coli MC1061,E. coli MC1061,0.30 ± 0.07 µg/mL
same,MIC Salmonella SL1344,Salmonella SL1344,0.60 ± 0.14 µg/mL
same,MIC E. coli JJ2487,E. coli JJ2487,0.39 ± 0.18 µg/mL
same,MIC Salmonella MH91989,Salmonella MH91989,0.60 ± 0.14 µg/mL
same,MIC E. coli O157:H7,E. coli O157:H7,2.40 ± 0.56 µg/mL
VDKRPYRPRPRPPRRIYNR-NH2 [VDKRPYRPRPRPPRRIYNR-NH2],MIC E. coli JW0013,E. coli JW0013,0.39 ± 0.18 µg/mL
same,MIC E. coli J2210,E. coli J2210,0.30 ± 0.07 µg/mL
same,MIC E. coli MC1061,E. coli MC1061,0.15 ± 0.03 µg/mL
same,MIC Salmonella SL1344,Salmonella SL1344,0.39 ± 0.18 µg/mL
same,MIC E. coli JJ2487,E. coli JJ2487,0.42 ± 0.21 µg/mL
same,MIC Salmonella MH91989,Salmonella MH91989,0.42 ± 0.21 µg/mL
same,MIC E. coli O157:H7,E. coli O157:H7,1.66 ± 0.82 µg/mL
